Measurements: patent US20230000982A1, “COMPOSITION FOR PREVENTING OR TREATING CANCER, CONTAINING NOVEL TRIFLUOROMETHYL PHENYL PYRAZOLE DERIVATIVE AS ACTIVE INGREDIENT” (KOREA INSTITUTE OF RADIOLOGICAL & MEDICAL SCIENCES, priority 2019, published 2023)

What was measured:
[1] = system: breast cancer cell lines BT549, T47D and MCF7; test: Clonogenic assay, combination of KRCT-1 and radiation; format: cell-based, Human; conditions: 2.5 μM KRCT-1 + 2.5 Gy radiation; compared to DMSO group
Method: A clonogenic assay was performed to confirm the effect of the combination of KRCT-1 and radiation. To perform clonogenic assay, breast cancer cell lines BT549, T47D and MCF7 were treated with 2.5 μM of KRCT-1 compound, and 2.5 Gy radiation was used using Biobeam GM8000 (Gamma-Gamma-Service Medical GmbH, Leipzig, Germany). The experimental technique for the remaining colony formation was performed in the same manner as in the above Example, and was shown in FIG. 6a. In the group treated with KRCT-1, the radiation treatment effect of the two cancer cell lines was significant compared to the group treated with DMSO, confirming that the number of cancer cell colonies decreased.

MCF7 cells = test: γ-H2AX foci experiment (DNA damage) with radiation; format: cell-based, Human; conditions: 20 μM for 24 h + 2 Gy radiation, fixed at 1 h; compared to each control group
Method: To determine how KRCT-1 affects DNA damage induced by radiation, a γ-H2AX foci experiment was performed. In the case that single-stranded or double-stranded DNA is cleaved by various DNA damaging agents including radiation, γ-H2AX phosphorylation occurs and nuclear foci are generated in the cell nucleus. Using this as an index, the effect of the combination according to DNA damage was evaluated. After culturing 2.5×10^4 MCF7 cells in a 24-well plate for 48 h, KRCT-1 20 μM was treated for 24 h, and the cells were fixed at 1 h after irradiation with 2 Gy of radiation. Then, after washing with phosphate buffered saline for permeation, 4% paraformaldehyde and 0.2% Triton-X were added and reacted for 10 min each. After 1 h pretreatment with 5% fetal bovine serum, 1:100 dilution of γ-H2AX (05-656; EMD Millipore Corp., MA, USA) antibody to phosphorylated H2AX for was treated for 16 h, and it was washed 3 times with 0.1% TritonX-100/phosphate buffered saline solution (Tritonx-100/PBS). Alexa488-conjugated secondary antibody (AP132JA4, Invitrogen) was reacted for 2 h at room temperature and labeled, and phosphorylated γ-H2AX foci were photographed and analyzed with IN Cell Analyzer 6000 (GE Healthcare Life Science). […] Taken together, in cancer cells, it was confirmed that KRCT-1 is a material that can be effectively used as a radiosensitizer.

Breast cancer cells MCF7 = test: Tumorsphere forming assay; format: cell-based, Human; conditions: cultured for 14 days; various breast cancer cell lines
Method: (§1) Human-derived tumor cell lines and breast cancer cell lines MCF7 and T47D, BT549, MDA-MB231, and MDA-MB453 was cultured in a DMEM medium (Corning, N.Y., USA), containing 10% fetal bovine serum (FBS; HyClone, South Logan, Utah) and 1% penicillin/streptomycin at 37° C. and 5% CO2 conditions.
In order to determine whether the selected KRCT-1 can effectively reduce the tumorsphere formation in cancer cells, tumorsphere forming assay was performed. Breast cancer cells MCF7 (2500-10000 cells) were suspended in serum-free DMEM/F12 (welGENE), containing 1% penicillin, B-27 (1:50; invitrogen), 20 ng/mL epidermal growth factor (R&D Systems) and 20 ng/mL fibroblasts growth factors (R&D Systems) on low adhesion plates and cultured. After 24 hours had elapsed, the cells were treated with the compound and cultured for 14 days, and then the diameter of the tumorspheres was measured and quantified, which is shown in FIG. 3D.

[2] = system: breast cancer cell lines BT549, T47D and MCF7; test: Western blotting, radiation combination effect; format: cell-based, Human; conditions: 10 μM + 3 Gy radiation, 30 h
Method: In order to confirm the synergistic effect of radiosensitivity of cancer cell lines through treatment with KRCT-1 through Western blotting experiments, 10 μM of KRCT-1 compound was treated in breast cancer cell lines BT549, T47D and MCF7, and Biobeam GM8000 (Gamma-Gamma-Service Medical GmbH, Leipzig, Germany) was used to culture for 30 h after treatment with 3 Gy radiation. For Western blotting, 20 μg of protein was isolated through SDS-PAGE electrophoresis and transferred to a PVDF membrane. The following specific antibodies were used: rabbit polyclonal antibody phospho-Chk2 (Thr68) (#2661; Cell Signaling Technology, MA); rabbit monoclonal antibody chk2 (#6334S) were used. The remaining conditions of Western blotting were performed in the same manner as in the above Example. […] Through the above results, it was confirmed that apoptosis of cancer cells appeared effectively.

BT549 cell line = test: Immunodeficient mouse tumor model (xenograft) transplanted with BT549; format: in vivo; conditions: 30 mg/kg intraperitoneally twice a week
Method: By subcutaneously implanting a cancer cell line into an immunodeficient mouse tumor model, it was attempted to verify whether the anticancer effect of the compound actually occurs at the in vivo level. After the tumor was formed by implanting the BT549 cell line subcutaneously in the thigh of an immunodeficient mouse, in the case that the size of the tumor reached 50˜100 mm ˜3˜, the compound was intraperitoneally injected at 30 mg/kg twice a week. The tumor volume and the mouse weight were measured 3 times a week for the control group and the KRCT-1 treatment group, respectively. […] Western blotting was performed on the isolated mouse tumor for the tumor growth antigen Ki-67, which is shown B in FIG. 4b.

[3] = system: Breast cancer cell lines BT549, T47D, and MCF7; test: Western blotting of survivin and apoptosis markers; format: cell-based, Human; conditions: 0, 2.5, 5, 10, and 20 μM, 24 h
Method: Apoptosis by KRCT-1 was confirmed through Western blotting. After separation of 20 μg of protein by SDS-PAGE electrophoresis and transferred to PVDF membrane, the following specific antibodies were used: rabbit polyclonal antibodies cleaved PARP (Asp214) (#9541) and phospho-Chk2 (Thr68) (#2661; Cell Signaling Technology, MA); rabbit monoclonal antibodies caspase3 (#9664), chk2 (#6334S), survivin (#2808S); mouse monoclonal antibody caspase 9 (551246; BD Pharmingen, Calif., USA). In addition, mouse monoclonal antibody (3-actin (C4; Santa Cruz Biotechnology, Calif., USA) was used as a loading control, washed with 1×PBS/0.1% Tween 20, and HRP-binding secondary antibody and improved chemiluminescence detection system was used to detect the binding protein, and an image of the band was obtained using the Amersham Imager 600 system (GE Healthcare Life Science), which is shown in FIG. 5b.
Breast cancer cell lines BT549, T47D, and MCF7 were treated with 0, 2.5, 5, 10, and 20 μM of KRCT-1 in a dose-dependent manner for 24 h each, and the expression level of survivin essential for the survival of cancer cells and the expression levels of an apoptosis markers, clv-PARP, caspase 9 and caspase 3 were checked. According to the concentration of the treated KRCT-1, the expression levels of survivin and pro-caspase 9 in cancer cells were decreased, and it was confirmed that the truncated PARP and caspase3 increased during apoptosis. Through the above results, it was confirmed that apoptosis was activated due to KRCT-1.

Trk-A kinase [4] = target: T1, Trk-A kinase (Homo sapiens, UniProt P04629); test: In vitro kinase assay of Trk-A; format: biochemical; parameters: purchased Eurofins Pharma Discovery Services (commissioned via Goma Biotech); conditions: serially diluted 3-fold from 100 μM; FIG. 7b
T1 sequence (P04629 33-796): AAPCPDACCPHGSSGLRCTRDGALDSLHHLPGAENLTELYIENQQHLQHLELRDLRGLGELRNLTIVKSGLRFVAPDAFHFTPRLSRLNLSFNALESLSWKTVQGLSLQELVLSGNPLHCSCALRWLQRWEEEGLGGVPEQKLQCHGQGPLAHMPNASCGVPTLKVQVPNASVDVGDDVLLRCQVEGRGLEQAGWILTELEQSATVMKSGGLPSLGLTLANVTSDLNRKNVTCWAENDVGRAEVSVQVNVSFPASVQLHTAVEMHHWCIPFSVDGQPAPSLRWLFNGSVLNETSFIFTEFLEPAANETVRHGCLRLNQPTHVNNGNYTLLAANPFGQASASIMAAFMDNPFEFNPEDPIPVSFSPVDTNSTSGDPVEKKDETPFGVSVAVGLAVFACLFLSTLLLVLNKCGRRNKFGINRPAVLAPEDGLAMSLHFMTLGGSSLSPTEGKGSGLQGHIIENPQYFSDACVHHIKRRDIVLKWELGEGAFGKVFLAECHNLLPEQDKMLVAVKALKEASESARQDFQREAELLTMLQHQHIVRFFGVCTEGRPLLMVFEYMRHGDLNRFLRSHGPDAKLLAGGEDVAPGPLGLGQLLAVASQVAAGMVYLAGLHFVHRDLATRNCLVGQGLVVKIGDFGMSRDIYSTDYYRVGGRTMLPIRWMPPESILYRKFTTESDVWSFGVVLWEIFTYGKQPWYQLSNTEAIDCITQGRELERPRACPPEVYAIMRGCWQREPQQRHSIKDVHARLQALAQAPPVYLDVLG
Method: To measure the selective reactivity of KRCT-1 to a specific kinase, in vitro kinase assay profiling was commissioned to Goma Biotech (Seoul, Korea), and the enzyme reaction experiment was performed at Eurofins Pharma Discovery Services (Scotland, UK). For kinase profiling, 104 kinase series and 10 μM KRCT-1 were used in the reaction as a broad oncology panel. To obtain the IC50 kinase assay of Trk-A, KRCT-1 serially diluted 3-fold from 100 μM was used.

MCF7 = test: Annexin V/PI staining FACS apoptosis analysis, MCF7; format: cell-based, Human; conditions: MCF7, 20 μM, 48 h
Method: (§2) After Annexin V/PI staining, FACS analysis was performed to confirm the cancer cell killing effect. Cancer cell lines MCF7 and BT549 were treated for 48 h in the presence and absence of 20 μM of KRCT-1, and analysis of Annexin V binding was performed using the Annexin V-FITC apoptosis Detection Kit (BD Biosciences, San Jose, Calif., USA) according to the manufacturer's recommended protocol. Briefly, after collecting all cells, including the cell medium, the cells were centrifuged at 1500 rpm for 5 minutes, washed with 1×PBS, resuspended at 1×10^6 cell concentration, and then 100 μl of the cell suspension was added in a 5 ml tube, and 5 μl of Annexin V-FITC and 5 μl of PI were added thereto and cultured in the dark for 15 minutes at RT. 400 μl of 1× binding buffer was added to each tube and samples were analyzed by flow cytometry. As a result, it was confirmed that MCF7 induced about 40%, BT549 induced about 23% cell death.

BT549 = test: Annexin V/PI staining FACS apoptosis analysis, BT549; format: cell-based, Human; conditions: BT549, 20 μM, 48 h
Method: as §2

[5] = system: breast cancer cell lines BT549, MCF7, T47D and MDA MB231; test: Colonogenic (colony formation) assay; format: cell-based, Human; conditions: 10 μM, cultured for 14 days; various breast cancer cell lines
Method: as §1
Colonogenic analysis was performed to determine whether the selected KRCT-1 could efficiently kill cancer cells. First, cells of various breast cancer cell lines BT549, MCF7, T47D and MDA MB231 (500-1000 cells) were cultured in a 60 mm culture plate, and 24 hours later, 10 μM of the compound was treated, respectively, and cultured for 14 days.

Trk-A kinase [6] = target: T1, Trk-A kinase; test: Western blotting of Trk-A downstream signaling (phosphorylated ERK, phosphorylated STAT3) in cancer cell lines; format: cell-based; conditions: 2.5, 5, 10, 20 μM; FIG. 7c
Method: In cancer cell lines, it was confirmed whether KRCT-1 inhibits the activity of Trk-A kinase to inhibit downstream signaling. In the case that Trk-A is activated by ligand, the MEK/ERK and STAT3 signaling pathways in the cell are activated. Using this as an indicator, changes in phosphorylated ERK and phosphorylated STAT3 were confirmed in the case that cancer cell lines were treated with KRCT-1 concentrations (2.5, 5, 10, 20 μM). For Western blotting, 20 μg of protein was isolated through SDS-PAGE electrophoresis and transferred to PVDF membrane. The following specific antibodies were used: rabbit polyclonal antibody phospho-STAT3 (Tyr705) (ab76315; Abcam, UK), mouse monoclonal antibodies phospho-ERK (Thr202/Tyr204) (sc-514302; Santa Cruz Biotechnology), ERK (sc-7383; Santa Cruz Biotechnology), and STAT3 (sc8019; Santa Cruz Biotechnology) were used. The remaining conditions of Western blotting were performed in the same manner as in the above Example.

## CN(C)S(=O)(=O)Nc1cccc(-c2cnn(-c3ccc(C(F)(F)F)cc3)c2)c1 [KRCT-1, N,N-dimethyl-N′-(3-(1-(4-(trifluoromethyl)phenyl)-1H-pyrazol-4-yl)phenyl)azanesulfonamide]
[1]
  number of cancer cell colonies after radiation: decreased
MCF7 cells
  DNA damage (phosphorylated γ-H2AX foci): DNA damage occurred in relatively many cancer cells
Breast cancer cells MCF7
  diameter of cancer cell tumorspheres: significantly reduced
[2]
  expression level of phosphorylated Chk2 after radiation treatment: increased
  expression level of survivin after radiation treatment: decreased
BT549 cell line
  expression of Ki-67 in isolated mouse tumor (Western blotting): significantly reduced
BT549 cell line; 4 weeks after transplantation, vs control group
  tumor volume and size: smaller tumor volume and size than the control group
BT549 cell line; weight measured 3 times a week
  body weight of immunodeficient mice: not significantly changed
[3]
  truncated PARP: increased
  truncated caspase3: increased
[3]; according to concentration
  expression level of pro-caspase 9: decreased
  expression level of survivin: decreased
Trk-A kinase [4]
  in vitro Trk-A kinase activity: inhibition
MCF7
  cell death (Annexin V/PI FACS): about 40%
BT549
  cell death (Annexin V/PI FACS): about 23%
[5]
  number and size of cell colonies: significantly reduced
Trk-A kinase [6]
  downstream signaling of Trk-A kinase in cancer cells: inhibited
